According to paper doi:10.1101/155374v1, “A trapped double bond-photoisomerization intermediate in a bacterial photoreceptor” (biorxiv, 2017):

Molecular target: T1, Slr1393g3 (GAF3 domain of cyanobacteriochrome Slr1393) (Synechocystis sp. PCC 6803, UniProt P73184)
T1 construct: isolated GAF3 domain, residues 441-596 modelled (155 amino acids stated), N-terminal His tag (tag residues seen at both ends), expressed in E. coli; one monomer per ASU, dimer in solution for Pr state
T1 sequence (P73184 441-596): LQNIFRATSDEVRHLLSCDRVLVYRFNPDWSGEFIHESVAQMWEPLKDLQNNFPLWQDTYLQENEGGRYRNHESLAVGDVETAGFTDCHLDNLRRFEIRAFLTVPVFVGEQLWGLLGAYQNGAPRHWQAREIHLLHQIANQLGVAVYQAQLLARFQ
Test: X-ray crystallography
Assay type: binding
Details: covalent; thioether bond of Cys528 to C3(1) of PCB; 5DFY in vitro assembled Pr 1.6 A; 5DFX in vivo Pr 1.8 A; 5M82 Pg (15-E) 1.86 A; 5M85 X-ray induced intermediate 2.1 A

For `C/C=C1/C(=C/c2[nH]c(/C=C3N=C(/C=C4\NC(=O)C(CC)=C4C)C(C)=C\3CCC(=O)O)c(CCC(=O)O)c2C)NC(=O)[C@@H]1C` [PCB, phycocyanobilin], the X-ray crystallography was “The PCB chromophore is covalently bound to Cys528 on helix a4”.
